From the supplement of paper PMC10307832

Tests used:
Assay in all cases: relative viability (nuclei count vs DMSO), 5 days (fraction); higher = more cells survive
[1] = compound: CCc1c2c(nc3ccc(OC(=O)N4CCC(N5CCCCC5)CC4)cc13)-c1cc3c(c(=O)n1C2)COC(=O)[C@]3(O)CC [Irinotecan] + CC(C)C[C@H](NC(=O)[C@H](Cc1ccccc1)NC(=O)c1cnccn1)B(O)O [Bortezomib] (partner 0.002 µM)
In short: (§1)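 The day after seeding in 1536-well plates, lung cancer cell lines were treated by pin tool with a single drug, or with a fixed anchor-drug dose together with five library-drug doses (not always all listed) in √10 steps. After 5 days, a combined fix-and-stain solution (final 0.05% Triton X-100, 1% formaldehyde, 1 ug/ml Hoechst) was added. Nuclei counted on 4× images gave relative viability as treated counts over vehicle counts, reported as the median of duplicate plates.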

[2] = compound: CC[C@@H](C)CNCC(=O)N1CCC2=C([C@@H]1COC3=CC=CC(=C3)C)C=CS2 [RU-SKI 43] + Nc1ncn([C@H]2C[C@H](O)[C@@H](CO)O2)c(=O)n1 [Decitabine] (partner 2 µM)
In short: as §1

[3] = compound: CCc1c2c(nc3ccc(OC(=O)N4CCC(N5CCCCC5)CC4)cc13)-c1cc3c(c(=O)n1C2)COC(=O)[C@]3(O)CC [Irinotecan] + COc1cc2c(Oc3ccc(NC(=O)C4(C(=O)Nc5ccc(F)cc5)CC4)cc3F)ccnc2cc1OCCCN1CCOCC1 [Foretinib] (partner 0.25 µM)
In short: as §1

Row | Cell Line | relative viability ([1]; first compound 0.6325 µM) | relative viability ([1]; first compound 2 µM) | relative viability ([1]; first compound 6.325 µM) | relative viability ([1]; first compound 20 µM) | relative viability ([2]; first compound 0.1 µM) | relative viability ([2]; first compound 0.3162 µM) | relative viability ([2]; first compound 1 µM) | relative viability ([2]; first compound 3.162 µM) | relative viability ([2]; first compound 10 µM) | relative viability ([3]; first compound 0.6325 µM) | relative viability ([3]; first compound 2 µM) | relative viability ([3]; first compound 6.325 µM) | relative viability ([3]; first compound 20 µM)
1 | NCI-H3122 | 1.05 | 0.824 | 0.252 | 0.259 | 0.365 | 0.478 | 0.469 | 0.413 | 0.391 | 0.833 | 0.236 | 0.183 | 0.171
2 | SW 1573 | 0.803 | 0.745 | 0.189 | 0.162 | 0.483 | 0.594 | 0.51 | 0.532 | 0.433 | 0.848 | 0.786 | 0.463 | 0.195
3 | NCI-H2342 | – | – | – | – | 0.701 | – | 0.724 | 0.797 | 0.769 | 1.17 | 0.928 | 0.826 | 0.525
4 | HCC-15 | 0.603 | 0.623 | 0.374 | 0.176 | 0.545 | 0.688 | 0.732 | 0.606 | 0.587 | – | 0.695 | 0.23 | 0.161
5 | NCI-H1666 | 0.608 | 0.419 | 0.414 | 0.214 | 0.739 | 0.794 | 0.721 | 0.643 | 0.665 | 0.774 | 0.689 | 0.654 | 0.404
6 | NCI-H460 | 0.677 | 0.353 | 0.0854 | 0.0632 | 0.446 | 0.698 | 0.547 | 0.475 | 0.379 | 0.815 | 0.418 | 0.136 | 0.0629
7 | NCI-H1792 | 0.955 | 1.17 | 0.486 | 0.192 | 0.392 | 0.667 | 0.682 | 0.728 | 0.561 | – | – | – | –
8 | NCI-H2087 | 0.442 | 0.476 | 0.18 | 0.248 | 0.324 | 0.283 | 0.281 | 0.247 | 0.238 | 0.748 | 0.326 | 0.169 | 0.192
9 | EKVX | 1.08 | 0.772 | 0.394 | 0.193 | 0.303 | 0.254 | 0.146 | 0.342 | 0.365 | 0.199 | 0.726 | 0.529 | 0.164
10 | IA-LM | 0.722 | 0.355 | 0.197 | 0.0773 | – | – | – | – | – | 0.951 | 0.62 | 0.148 | 0.117
11 | NCI-H1355 | 1.02 | 1.12 | 0.561 | 0.265 | 0.351 | 0.378 | 0.348 | 0.348 | 0.354 | – | 0.622 | 0.321 | 0.259
12 | NCI-H661 | 0.701 | 0.609 | 0.354 | 0.285 | 0.483 | 0.603 | 0.588 | 0.557 | 0.465 | 0.957 | 0.913 | 0.605 | 0.397
13 | PC-3 [JPC-3] | 0.703 | 0.826 | 0.579 | 0.296 | 0.789 | 0.894 | 0.804 | 0.852 | 0.749 | 0.912 | 0.667 | 0.323 | 0.368
14 | NCI-H2085 | 0.847 | 1.01 | 0.535 | 0.494 | 0.509 | 0.497 | 0.572 | 0.603 | 0.509 | 1.06 | 0.775 | 0.464 | 0.54
15 | NCI-H1650 | 0.188 | 0.198 | 0.244 | 0.133 | 0.315 | 0.36 | 0.338 | 0.509 | 0.34 | – | 0.956 | 0.432 | 0.446
16 | NCI-H1993 | 1.1 | 0.968 | 0.613 | 0.399 | 0.547 | 0.578 | 0.517 | 1.1 | 0.643 | 0.769 | 0.663 | 0.706 | 0.644
17 | NCI-H2228 | 0.689 | 0.685 | 0.514 | 0.343 | – | – | – | – | – | 0.925 | 0.731 | 0.293 | 0.238
18 | LK-2 | – | – | – | – | 0.317 | 0.279 | 0.408 | 0.298 | 0.246 | 1.25 | 0.329 | 0.305 | 0.283
19 | LC-2-ad | 0.688 | 0.286 | 0.167 | 0.128 | 0.866 | 0.766 | 0.81 | 0.849 | 0.728 | 0.73 | 0.621 | 0.288 | 0.235
20 | NCI-H596 | 0.867 | 1.09 | 0.709 | 0.79 | 1.08 | 1.04 | 0.91 | 1.16 | 1.07 | 0.841 | 0.783 | 0.621 | 0.632
21 | NCI-H1395 | – | – | – | – | 0.661 | 0.858 | 0.776 | 0.714 | 0.696 | 0.841 | 0.592 | 0.498 | 0.495
22 | NCI-H1793 | – | – | – | – | 0.461 | 0.421 | 0.458 | 0.486 | 0.443 | – | 0.501 | 0.226 | 0.185
23 | SW 900 | – | – | – | – | 0.422 | 0.408 | 0.423 | 0.428 | 0.453 | 0.898 | 0.667 | 0.393 | 0.448
24 | NCI-H1944 | – | – | – | – | 0.449 | 0.4 | 0.423 | 0.473 | 0.442 | 0.655 | 0.351 | 0.198 | 0.18
25 | NCI-H1703 | 0.267 | 0.426 | 0.33 | 0.112 | – | – | – | – | – | 0.321 | 0.433 | 0.512 | 0.367
26 | NCI-H1299 | 0.932 | 0.824 | 0.487 | 0.415 | – | – | – | – | – | 0.888 | 0.909 | 0.483 | 0.212
27 | SK-MES-1 | – | – | – | – | 0.313 | 0.385 | 0.391 | 0.403 | 0.389 | 0.915 | 0.644 | 0.441 | 0.285
28 | NCI-H2170 | – | – | – | – | 0.439 | 0.514 | 0.438 | 0.426 | 0.49 | 1.01 | 0.616 | 0.252 | 0.214
29 | CAL-12T | 0.944 | 0.978 | 0.491 | 0.324 | – | – | – | – | – | – | 0.924 | 0.398 | 0.293
